Tested on: E. coli TOP10
Experiment: Suicide expression system (SES) growth inhibition
Type: cell-based
Conditions: Table 4; variants of SEQ ID NO:10, re-tested in the Bioscreen C

| Substance | Growth inhibition (%) |
| --- | --- |
| 179 (RRRPFRPPIRPPIRPPFRPPFRPPFRP; Synthetic antimicrobial peptide) [compound 179] | 87 |
| 180 (RRRPLRPPIRPPIRPPIRPPFRPPFRP; Synthetic antimicrobial peptide) [compound 180] | 76 |
| 181 (RRRPIRPPIRPPFRPPFRPPFRPPFRP; Synthetic antimicrobial peptide) [compound 181] | 83 |
| 182 (RRRPFRPPIRPPFRPPIRPPVRPPFRP; Synthetic antimicrobial peptide) [compound 182] | 83 |
| 183 (RRRPFRPPVRPPLRPPFRPPFRPPFRP; Synthetic antimicrobial peptide) [compound 183] | 80 |
| 184 (RRRPIRPPIRPPFRPPLRPPFRPPFRP; Synthetic antimicrobial peptide) [compound 184] | 78 |
| 185 (RRRPLRPPIRPPIRPPFRPPFRPPFRP; Synthetic antimicrobial peptide) [compound 185] | 79 |
| 186 (RRRPIRPPIRPPIRPPFRPPFRPPFRP; Synthetic antimicrobial peptide) [compound 186] | 77 |
| 187 (RRRPIRPPFRPPFRPPVRPPFRPPFRP; Synthetic antimicrobial peptide) [compound 187] | 85 |
| 188 (RRRPFRPPFRPPIRPPVRPPVRPPFRP; Synthetic antimicrobial peptide) [compound 188] | 83 |
| 189 (RRRPFRPPFRPPIRPPVRPPIRPPFRP; Synthetic antimicrobial peptide) [compound 189] | 79 |
| 190 (RRRPFRPPIRPPFRPPIRPPFRPPFRP; Synthetic antimicrobial peptide) [compound 190] | 83 |
| 191 (RRRPFRPPFRPPIRPPFRPPVRPPFRP; Synthetic antimicrobial peptide) [compound 191] | 77 |
| 192 (RRRPFRPPFRPPFRPPVRPPVRPPFRP; Synthetic antimicrobial peptide) [compound 192] | 92 |
| 193 (RRRPFRPPIRPPFRPPIRPPFRPPFRP; Synthetic antimicrobial peptide) [compound 193] | 81 |
| 194 (RRRPLRPPFRPPFRPPIRPPFRPPFRP; Synthetic antimicrobial peptide) [compound 194] | 81 |
| 195 (RRRPFRPPIRPPFRPPVRPPVRPPVRP; Synthetic antimicrobial peptide) [compound 195] | 76 |
| 196 (RRRPFRPPLRPPIRPPIRPPFRPPFRP; Synthetic antimicrobial peptide) [compound 196] | 77 |
| 197 (RRRPFRPPFRPPFRPPFRPPLRPPFRP; Synthetic antimicrobial peptide) [compound 197] | 86 |
| 198 (RRRPFRPPFRPPFRPPFRPPFRPPFRP; Synthetic antimicrobial peptide) [compound 198] | 91 |
| 199 (RRRPLRPPIRPPFRPPVRPPFRPPFRP; Synthetic antimicrobial peptide) [compound 199] | 80 |
| 200 (RRRPFRPPFRPPLRPPFRPPVRPPFRP; Synthetic antimicrobial peptide) [compound 200] | 87 |
| 201 (RRRPFRPPIRPPIRPPFRPPIRPPFRP; Synthetic antimicrobial peptide) [compound 201] | 78 |
| 202 (RRRPFRPPFRPPFRPPLRPPFRPPFRP; Synthetic antimicrobial peptide) [compound 202] | 84 |
| 203 (RRRPFRPPIRPPFRPPIRPPFRPPFRP; Synthetic antimicrobial peptide) [compound 203] | 79 |
| 204 (RRRPLRPPLRPPFRPPIRPPFRPPFRP; Synthetic antimicrobial peptide) [compound 204] | 76 |
| 205 (RRRPFRPPFRPPIRPPVRPPFRPPFRP; Synthetic antimicrobial peptide) [compound 205] | 77 |
| 206 (RRRPFRPPFRPPFRPPFRPPFRPPFRP; Synthetic antimicrobial peptide) [compound 206] | 77 |

Same assay, conditions: Table 5; mixed-motif library, re-tested in the Bioscreen C

| Substance | Growth inhibition (%) |
| --- | --- |
| 207 (RRRPPRFPRPFPIRPPPRFPRPIPFRP; Synthetic antimicrobial peptide) [compound 207] | 93 |
| 208 (RRRPPRFPRPFPVRPPPRFPRPIPVRP; Synthetic antimicrobial peptide) [compound 208] | 95 |
| 209 (RRRPPRIPRPFPIRPPPRFPRPIPFRP; Synthetic antimicrobial peptide) [compound 209] | 78 |
| 210 (RRRPPRIPRPIPVRPPPRIPRPIPFRP; Synthetic antimicrobial peptide) [compound 210] | 94 |
| 211 (RRRPPRLPRPFPFRPPPRFPRPIPFRP; Synthetic antimicrobial peptide) [compound 211] | 96 |
| 212 (RRRPPRLPRPFPFRPPPRFPRPVPIRP; Synthetic antimicrobial peptide) [compound 212] | 96 |
| 213 (RRRPPRLPRPFPFRPPPRLPRPFPIRP; Synthetic antimicrobial peptide) [compound 213] | 94 |
| 214 (RRRPPRLPRPFPFRPPPRLPRPIPLRP; Synthetic antimicrobial peptide) [compound 214] | 95 |
| 215 (RRRPPRLPRPFPFRPPPRPRPFPFRP; Synthetic antimicrobial peptide) [compound 215] | 94 |
| 216 (RRRPPRLPRPFPFRPPPRPRPLPVRP; Synthetic antimicrobial peptide) [compound 216] | 95 |
| 217 (RRRPPRLPRPFPFRPPPRVPRPFPLRP; Synthetic antimicrobial peptide) [compound 217] | 93 |
| 218 (RRRPPRLPRPFPFRPPPRVPRPIPVRP; Synthetic antimicrobial peptide) [compound 218] | 93 |
| 219 (RRRPPRLPRPFPFRPPPRVPRPLPFRP; Synthetic antimicrobial peptide) [compound 219] | 93 |
| 220 (RRRPPRLPRPFPIRPPPRFPRPFPVRP; Synthetic antimicrobial peptide) [compound 220] | 90 |
| 221 (RRRPPRLPRPFPIRPPPRFPRPLPFRP; Synthetic antimicrobial peptide) [compound 221] | 93 |
| 222 (RRRPPRLPRPFPIRPPPRFPRPVPLRP; Synthetic antimicrobial peptide) [compound 222] | 93 |
| 223 (RRRPPRLPRPFPIRPPPRLPRPLPFRP; Synthetic antimicrobial peptide) [compound 223] | 90 |
| 224 (RRRPPRLPRPFPIRPPPRVPRPFPVRP; Synthetic antimicrobial peptide) [compound 224] | 93 |
| 225 (RRRPPRLPRPFPIRPPPRVPRPIPIRP; Synthetic antimicrobial peptide) [compound 225] | 97 |

| Substance | Growth inhibition (%) |
| --- | --- |
| 226 (RRRPPRLPRPFPIRPPPRVPRPIPVRP; Synthetic antimicrobial peptide) [compound 226] | 94 |
| 227 (RRRPPRLPRPFPIRPPPRVPRPVPIRP; Synthetic antimicrobial peptide) [compound 227] | 94 |
| 228 (RRRPPRLPRPFPLRPPPRFPRPFPIRP; Synthetic antimicrobial peptide) [compound 228] | 96 |
| 229 (RRRPPRLPRPFPLRPPPRFPRPFPLRP; Synthetic antimicrobial peptide) [compound 229] | 95 |
| 230 (RRRPPRLPRPFPLRPPPRFPRPLPLRP; Synthetic antimicrobial peptide) [compound 230] | 94 |
| 231 (RRRPPRLPRPFPLRPPPRLPRPFPFRP; Synthetic antimicrobial peptide) [compound 231] | 98 |
| 232 (RRRPPRLPRPFPLRPPPRLPRPIPVRP; Synthetic antimicrobial peptide) [compound 232] | 92 |
| 233 (RRRPPRLPRPFPLRPPPRLPRPLPVRP; Synthetic antimicrobial peptide) [compound 233] | 91 |
| 234 (RRRPPRLPRPFPLRPPPRVPRPLPIRP; Synthetic antimicrobial peptide) [compound 234] | 93 |
| 235 (RRRPPRLPRPFPLRPPPRVPRPVPFRP; Synthetic antimicrobial peptide) [compound 235] | 94 |
| 236 (RRRPPRLPRPFPLRPPPRVPRPVPFRP; Synthetic antimicrobial peptide) [compound 236] | 91 |
| 237 (RRRPPRLPRPFPLRPPPRVPRPVPVRP; Synthetic antimicrobial peptide) [compound 237] | 96 |
| 238 (RRRPPRLPRPFPVRPPPRFPRPFPIRP; Synthetic antimicrobial peptide) [compound 238] | 95 |
| 239 (RRRPPRLPRPFPVRPPPRFPRPFPLRP; Synthetic antimicrobial peptide) [compound 239] | 99 |
| 240 (RRRPPRLPRPFPVRPPPRFPRPVPFRP; Synthetic antimicrobial peptide) [compound 240] | 91 |
| 241 (RRRPPRLPRPFPVRPPPRIPRPIPFRP; Synthetic antimicrobial peptide) [compound 241] | 96 |
| 242 (RRRPPRLPRPFPVRPPPRLPRPVPFRP; Synthetic antimicrobial peptide) [compound 242] | 90 |
| 243 (RRRPPRLPRPFPVRPPPRLPRPVPFRP; Synthetic antimicrobial peptide) [compound 243] | 91 |

Reference: patent publication US7833967B2, “Synthetic antimicrobial polypeptides” (priority 2003, dated 2010)
